Data as given in US20260345601A1, “FORMS OF CARBAMATE DERIVATIVES AND RELATED USES” (NodThera Limited, priority 2022, published 2026).
Values after ≈ are worked out from the molar mass of the structure shown. “Also recorded” adds a separate entry of the source.

How the values were obtained:
NLRP3 inflammasome = conditions: reported in literature; cited from earlier work
[1] = Chemical stability evaluation in solvents (Table F); assay type: physicochemical
Experimental: Chemical stability of this compound was evaluated in MeOH, Acetone, MEK, EtOAc, and IPAc at different temperature points.

[2] = Solubility of Form 1 in IPAc/Heptane system (Table E); assay type: physicochemical
Experimental: Solubility of Form 1 was further measured in IPAc/Heptane system with different ratio at 0-50 °C.

[3] = Gravimetric vapour sorption (GVS); assay type: physicochemical; conditions: for GVS hygroscopicity / GVS hysteresis / GVS water uptake: 25 °C; for XRPD post GVS: form after GVS experiment
Experimental: Gravimetric Vapour Sorption (GVS)
Sorption isotherms were obtained using a SMS DVS Intrinsic moisture sorption analyser, controlled by DVS Intrinsic Control software. The sample temperature was maintained at 25 °C by the instrument controls. The humidity was controlled by mixing streams of dry and wet nitrogen, with a total flow rate of 200 ml/min. The relative humidity was measured by a calibrated Rotronic probe (dynamic range of 1.0-100% RH), located near the sample. The weight change, (mass relaxation) of the sample as a function of % RH was constantly monitored by a microbalance (accuracy±0.005 mg).
Typically, 5-30 mg of sample was placed in a tared mesh stainless steel basket under ambient conditions. The sample was loaded and unloaded at 40% RH and 25 °C (typical room conditions). A moisture sorption isotherm was performed as outlined below (2 scans per complete cycle). The standard isotherm was performed at 25 °C at 10% RH intervals over a 0-90% RH range. Typically, a double cycle (4 scans) was carried out. Data analysis was carried out within Microsoft Excel using the DVS Analysis Suite.
The sample was recovered after completion of the isotherm and re-analysed by XRPD.

[4] = Storage at 25 °C/97% RH and 40 °C/75% RH; assay type: physicochemical
Experimental: Chemical Purity Determination by High-Performance Liquid Chromatography (HPLC)
Purity analysis was performed on an Agilent HP1100/Infinity II 1260 series system equipped with a diode array detector and using OpenLAB software. The full method details are provided below:
Unless stated within the appropriate data tables, all HPLC purity data reported has been run using the HPLC Method No. 2.

[5] = Drying stability test (Table I); assay type: physicochemical; conditions: 50 °C under vacuum
[6] = TGA (thermo-gravimetric analysis)/thermal analysis; assay type: physicochemical; conditions: for TGA weight loss before degradation: heated at 10 °C/min, nitrogen purge
Experimental: Thermo-Gravimetric Analysis (TGA)
TA Instruments Q500: TGA data were collected on a TA Instruments Q500 TGA, equipped with a 16 position auto-sampler. Typically, 5-10 mg of each sample was loaded onto a pre-tared aluminium DSC pan and heated at 10 °C/min from ambient temperature to 350 °C. A nitrogen purge at 60 ml/min was maintained over the sample. The instrument control software was Advantage for Q Series and Thermal Advantage and the data were analysed using Universal Analysis or TRIOS.

[7] = Solubility in single solvents, Form 2 as starting material (Table D); assay type: physicochemical; conditions: 20-25 °C
Experimental: Solubility of Form 1 was measured in several single solvents using Form 2 as starting material, respectively. […] Thus, MeOH, Acetone, MEK, EtOAc and IPAc were selected for further chemical stability evaluation before starting solubility test with anti-solvents.

[8] = Solubility in aqueous and biorelevant media (Table A); assay type: physicochemical
Text: Form 1 was characterized using a wide range of techniques to investigate the solid form and chemical properties (FIGS. 1-6B).

SMILES: O=[N+]([O-])C=Cc1ccc2c(c1)OCO2 [3,4-methylenedioxy-β-nitrostyrene]
- Effect on NLRP3 activation (NLRP3 inflammasome): impair NLRP3 activation

SMILES: Cc1ccc(S(=O)(=O)/C=C/C#N)cc1 [Bay 11-7082]
- Effect on NLRP3 activation (NLRP3 inflammasome): impair NLRP3 activation

SMILES: CC(C)OC(=O)[C@@H](Cc1ncccn1)OC(=O)Nc1c2c(cc3c1CCC3)CCC2 [Compound A, propan-2-yl(2R)-2-{[(1,2,3,5,6,7-hexahydro-s-indacen-4-yl)carbamoyl]oxy}-3-(pyrimidin-2-yl) propanoate]
- Chemical stability in words ([1]; Acetone and EtOAc, 23 h): slight degradation
- Chemical stability: purity ([1]; Acetone, 40 °C, 0 h): 99.57%
- Chemical stability: purity ([1]; Acetone, 40 °C, 5-6 h): 99.55%
- Chemical stability: purity ([1]; Acetone, 40 °C, 23-24 h): 98.06%
- Chemical stability: purity ([1]; EtOAc, 40 °C, 0 h): 99.49%
- Chemical stability: purity ([1]; EtOAc, 40 °C, 5-6 h): 99.46%
- Chemical stability: purity ([1]; EtOAc, 40 °C, 23-24 h): 99.46%
- Chemical stability: purity ([1]; EtOAc, 50 °C, 0 h): 99.43%
- Chemical stability: purity ([1]; EtOAc, 50 °C, 5-6 h): 99.31%
- Chemical stability: purity ([1]; EtOAc, 50 °C, 23-24 h): 99.27%
- Chemical stability: purity ([1]; IPAc, 50 °C, 0 h): 99.70%
- Chemical stability: purity ([1]; IPAc, 50 °C, 5 h): 99.73%
- Chemical stability in words ([1]; IPAc, 50 °C, 24 h): chemical stable
- Chemical stability: purity ([1]; IPAc, 50 °C, 24 h): 99.76%
- Chemical stability: purity ([1]; MEK, 40 °C, 0 h): 99.52%
- Chemical stability: purity ([1]; MEK, 40 °C, 5-6 h): 99.51%
- Chemical stability: purity ([1]; MEK, 40 °C, 23-24 h): 93.28%
- Chemical stability: purity ([1]; MEK, 50 °C, 0 h): 99.38%
- Chemical stability: purity ([1]; MEK, 50 °C, 5-6 h): 92.75%
- Chemical stability: purity ([1]; MEK, 50 °C, 23-24 h): 87.20%
- Chemical stability in words ([1]; MeOH and MEK, 23 h): serious degradation
- Chemical stability: purity ([1]; MeOH, 50 °C, 0 h): 99.12%
- Chemical stability: purity ([1]; MeOH, 50 °C, 5-6 h): 98.03%
- Chemical stability: purity ([1]; MeOH, 50 °C, 23-24 h): 90.58%

SMILES: CC(C)OC(=O)[C@@H](Cc1ncccn1)OC(=O)Nc1c2c(cc3c1CCC3)CCC2 [Form 1, propan-2-yl(2R)-2-{[(1,2,3,5,6,7-hexahydro-s-indacen-4-yl)carbamoyl]oxy}-3-(pyrimidin-2-yl) propanoate]
- Solubility ([2]; IPAc/Heptane 1/0 (v/v), 30 °C): 59500 µg/mL (≈ 145 mM)
- Solubility ([2]; IPAc/Heptane 1/0 (v/v), 40 °C): 80200 µg/mL (≈ 196 mM)
- Solubility ([2]; IPAc/Heptane 1/0 (v/v), 50 °C): 170600 µg/mL (≈ 417 mM)
- Solubility ([2]; IPAc/Heptane 1/1 (v/v), 0-5 °C): 6400 µg/mL (≈ 15.6 mM)
- Solubility ([2]; IPAc/Heptane 1/1 (v/v), 30 °C): 12100 µg/mL (≈ 29.5 mM)
- Solubility ([2]; IPAc/Heptane 1/1 (v/v), 50 °C): 34400 µg/mL (≈ 84 mM)
- Solubility ([2]; IPAc/Heptane 1/2 (v/v), 0-5 °C): 3400 µg/mL (≈ 8.3 mM)
- Solubility ([2]; IPAc/Heptane 1/2 (v/v), 30 °C): 4800 µg/mL (≈ 11.7 mM)
- Solubility ([2]; IPAc/Heptane 1/2 (v/v), 50 °C): 18000 µg/mL (≈ 44 mM)
- Solubility ([2]; IPAc/Heptane 1/3 (v/v), 0-5 °C): 1700 µg/mL (≈ 4.15 mM)
- Solubility ([2]; IPAc/Heptane 1/3 (v/v), 30 °C): 2900 µg/mL (≈ 7.08 mM)
- Solubility ([2]; IPAc/Heptane 1/3 (v/v), 50 °C): 8000 µg/mL (≈ 19.5 mM)
- Solubility ([2]; IPAc/Heptane 2/1 (v/v), 30 °C): 27700 µg/mL (≈ 67.6 mM)
- Solubility ([2]; IPAc/Heptane 2/1 (v/v), 50 °C): 53400 µg/mL (≈ 130 mM)
- Solubility ([2]; IPAc/Heptane 3/1 (v/v), 50 °C): 65200 µg/mL (≈ 159 mM)
- Solubility ([2]; IPAc/Heptane 4/1 (v/v), 50 °C): 75200 µg/mL (≈ 184 mM)
- Solubility ([2]; IPAc/Heptane 9/1 (v/v), 50 °C): 120000 µg/mL (≈ 293 mM)
- XRPD form in solubility test ([2]; IPAc/Heptane, 0-50 °C, starting material Form 1): Form 1
- GVS hygroscopicity [3]: Non-hygroscopic
- GVS hysteresis [3]: no hysteresis
- GVS water uptake ([3]; 0-90% RH): <0.1% water uptake between 0-90% RH
- GVS water uptake ([3]; 40-90% RH): < 0.1%
- XRPD post GVS [3]: remained as Form 1
- Storage: solid form ([4]; 25 °C/97% RH): Form 1
- Storage: solid form ([4]; 40 °C/75% RH): Form 1
- Drying stability: XRPD ([5]; 0 h): Form 1
- Drying stability: purity ([5]; 0 h): 99.0%
- Drying stability: XRPD ([5]; 22 h): Form 1
- Drying stability: purity ([5]; 22 h): 99.1%
- Drying stability: XRPD ([5]; 70 h): Form 1
- Drying stability: purity ([5]; 70 h): 99.1%
- Drying stability in words ([5]; total 70 h): no degradation and form change
- Stability at elevated temperatures ([5]; total 70 h): chemically and physically stable at elevated temperatures
- Thermal stability by thermal analysis [6]: thermally stable
- TGA weight loss before degradation [6]: no weight loss before degradation
- Solubility ([7]; Acetone, starting material Form 2, XRPD Form 1): 167000 µg/mL (≈ 408 mM)
- Solubility ([7]; EtOAc, starting material Form 2, XRPD Form 1): 98000 µg/mL (≈ 239 mM)
- Solubility in words ([7]; EtOH and IPA): moderate solubility
- Solubility ([7]; EtOH, starting material Form 2, XRPD Form 1): 45000 µg/mL (≈ 110 mM)
- Solubility ([7]; IPA, starting material Form 2, XRPD Form 1): 24000 µg/mL (≈ 58.6 mM)
- Solubility ([7]; IPAc, starting material Form 2, XRPD Form 1): 48000 µg/mL (≈ 117 mM)
- Solubility ([7]; MEK, starting material Form 2, XRPD Form 1): 175000 µg/mL (≈ 427 mM)
- Solubility ([7]; MeOH, starting material Form 2, XRPD Form 1): 77000 µg/mL (≈ 188 mM)
- Solubility in words ([7]; MeOH, Acetone, MEK, EtOAc and IPAc): good solubility
- Solubility in words ([7]; n-heptane and water): poor solubility
- Solubility ([7]; n-heptane, starting material Form 2, XRPD Form 1): 3000 µg/mL (≈ 7.33 mM)
- Solubility ([8]; fassif): 26 µg/mL (≈ 0.0635 mM)
- Solubility ([8]; fessif): 14 µg/mL (≈ 0.0342 mM)
- Solubility ([8]; pH = 1.2): < 10 µg/mL
- Solubility ([8]; pH = 5): < 10 µg/mL
- Solubility ([8]; pH = 6.5): < 10 µg/mL
- Solubility ([8]; pH = 7.4): < 10 µg/mL
- Solubility ([8]; pH = 8.5): < 10 µg/mL
- Solubility ([8]; sgf): 4.7 µg/mL (≈ 0.0115 mM)

SMILES: CC(C)OC(=O)[C@@H](Cc1ncccn1)OC(=O)Nc1c2c(cc3c1CCC3)CCC2 [Form 2, propan-2-yl(2R)-2-{[(1,2,3,5,6,7-hexahydro-s-indacen-4-yl)carbamoyl]oxy}-3-(pyrimidin-2-yl) propanoate]
- GVS hygroscopicity [3]: Non-hygroscopic
- GVS hysteresis [3]: no hysteresis
- GVS water uptake ([3]; 0-90% RH): ~0.15% reversible uptake from 0-90% RH
- GVS water uptake ([3]; 40-90% RH): 0.09%
- XRPD post GVS [3]: remained Form 2; also recorded: Crystalline - Form 2
- Storage: solid form ([4]; 25 °C/97% RH): Crystalline - Form 2
- Stability at elevated storage ([4]; 25 °C/97% RH and 40 °C/75% RH for 1 week): stable
- Storage: solid form ([4]; 40 °C/75% RH): Crystalline - Form 2
- Stability of solid form at elevated conditions ([4]; elevated conditions): stable at elevated conditions
- TGA weight loss before degradation [6]: No weight loss before degradation
- Form conversion after slurry (XRPD) ([7]; all selected solvents except water): converted to Form 1
- Form after slurry (XRPD) ([7]; H2O, starting material Form 2): Form 2
- Solubility ([7]; H2O, starting material Form 2, XRPD Form 2): 1000 µg/mL (≈ 2.44 mM)

SMILES: NC[C@@H]1O[C@H](c2ccccc2)Cc2c1ccc(O)c2O [Form A-68930]
- Effect on NLRP3 activation (NLRP3 inflammasome): impair NLRP3 activation

SMILES: COc1ccc(Cl)cc1C(=O)NCCc1ccc(S(=O)(=O)NC(=O)NC2CCCCC2)cc1 [Glyburide]
- Concentration of NLRP3 inhibition in words (NLRP3 inflammasome): micromolar concentrations
- Effect on NLRP3 activation (NLRP3 inflammasome): specific inhibitor of NLRP3 activation

SMILES: OC[C@H]1O[C@@H](c2ccc(Cl)c(Cc3ccc(O[C@H]4CCOC4)cc3)c2)[C@H](O)[C@@H](O)[C@@H]1O [epigliflozin]
- Effect on NLRP3 activation (NLRP3 inflammasome): impair NLRP3 activation

SMILES: CNCCC(Oc1ccc(C(F)(F)F)cc1)c1ccccc1 (stereo not drawn) [fluoxetine]
- Effect on NLRP3 activation (NLRP3 inflammasome): impair NLRP3 activation

SMILES: OC(CNCC(O)C1CCc2cc(F)ccc2O1)C1CCc2cc(F)ccc2O1 (stereo not drawn) [nebivolol]
- Effect on NLRP3 activation (NLRP3 inflammasome): impair NLRP3 activation

SMILES: C=C1C(=O)O[C@H]2[C@H]1CC/C(C)=C/CC[C@@]1(C)O[C@@H]21 [parthenolide]
- Effect on NLRP3 activation (NLRP3 inflammasome): impair NLRP3 activation

SMILES: O=c1c(O)c(-c2ccc(O)c(O)c2)oc2cc(O)cc(O)c12 [quercetin]
- Effect on NLRP3 activation (NLRP3 inflammasome): suppress NLRP3 activation

SMILES: C[S+]([O-])CCCCN=C=S (stereo not drawn) [sulforaphane]
- Effect on NLRP3 activation (NLRP3 inflammasome): suppress NLRP3 activation
